One compound from EP1961738A1, “New compounds with antiglutamatergic properties and uses thereof” (Faust Pharmaceuticals, priority 2007, dated 2008) can be followed below.

This test relates to cerebrospinal fluid glutamate level. Kind of test: Intracerebroventricular retrodialysis in rats with enzymatic chemiluminescent glutamate determination in microdialysates. Type of test: in vivo, Sprague-Dawley rats. As for the experimental part:
For this example, intracerebroventricular retrodialysis was performed on rats according to techniques known to those skilled in the art. The analysis of microdialysates was performed according to Israël and collaborators' publication (Neurochem Int 22(1): 53-58, 1993). Procedures are described below:
Surgery was performed on adult male Sprague-Dawley rats weighing 330-340g at the time of surgery. Following induction of anaesthesia with intraperitoneal administration of ketamine/xylazine, animals were secured in a stereotaxic frame in the flat-skull position at a constant setting of -3.3mm between ear and incisor bars. After defining the "stereotaxic zero" in accordance with Paxinos and Watson's atlas (1986), a microdialysis guide cannula was directed towards the right lateral ventricle with the coordinates from Bregma: anteroposterior -0.8mm, mediolateral +1.5mm, and dorsoventral (DV) -1.5mm (CMA12 probe: 2mm membrane) (Khandewal et al., J Neurosci Methods 133(1-2): 181-189, 2004).
The guide cannula was fixed to the skull using dental cement and three stainless steel screws. […]
Samples were subsequently analysed for glutamate determination using an enzymatic assay (Israël et al., 1993). The procedure is based on the oxidation of L-glutamate […] with subsequent NADH production, the NADH being continuously evaluated using the photobacterium chemiluminescent reaction at 460-490nm. […]

Consider `NC(=O)NN=C1C=Cc2ccc(OCCN3CCOCC3)cc2C1=O` [Example 13, 7-(2-morpholin-4-yl-ethoxy) naphtalene-1,2-dione2-semicarbazone], for which, where the note is “rat C (one rat out of five), 30µM solution by retrodialysis for 40min”, the “response of cerebrospinal fluid glutamate level to the compound” value is on record as “did not response”. For the same compound, the “decrease of the cerebrospinal fluid glutamate level” value (rats A, B, D and E (four of five), 30µM solution by retrodialysis for 40min into right lateral ventricle, after 80 minutes, relative to baseline set at 100%) is “up to 50%”.
